Source: article PMC3335202 (Journal of Medicinal Chemistry, 2012)
Read-outs that look alike come from different tables or passages of the source. Each block holds one compound with its values, some of them ahead of it.

Assays:
[1] = tested on: Human embryonic stem cell H9 lines carrying MYH6-mCherry reporters; test: hESC cardiogenesis assay; type: cell-based; conditions: hESCs, dose-response behaviour
[2] = tested on: Human embryonic stem cell H9 lines carrying MYH6-mCherry reporters; conditions: cited from earlier work
[3] = Chemical stability in phosphate buffer; type: physicochemical; conditions: 10 μM, phosphate buffer pH 7.4, up to 30 hours, HPLC
[4] = tested on: β-catenin-dependent canonical Wnt pathway; test: Wnt inhibition assay; type: cell-based, human; conditions: for IC50: Wnt inhibition; for fold less potent in Wnt inhibition: compared with the well-tolerated parent (9/1)
[5] = Homo sapiens, HEK-293T, HEK293T cells

Compound: O=C(Nc1cccc2cccnc12)c1ccc(N2C(=O)[C@@H]3[C@H](C2=O)[C@@H]2C=C[C@H]3C2)cc1 [Compound 1, reference compound]
induction of cardiogenesis (class in words) [1]: dose-dependent induction of cardiogenesis functional activity | cell toxicity (HEK293T cells; human): not toxic to HEK293T cells

Compound: Oc1nc(-c2ccc(C(F)(F)F)cc2)nc2c1CSCC2 [Compound 2]
cell toxicity (HEK293T cells): did not induce cell toxicity | fold less potent than 1 and 3 (cardiogenesis) ([2]; hESCs): about 1.5 fold | maximum efficacious concentration for cardiogenesis ([2]; hESCs): 2 µM

Compound: Cc1ccc2nc(NC(=O)CSc3nc4c(c(=O)n3-c3ccc(F)cc3)SCC4)sc2c1 [Compound 3]
maximum efficacious concentration for cardiogenesis ([2]; hESCs): 2.5 µM

Compound: COc1ccc(/C=C2/SC(=S)N(CCCC(=O)O)C2=O)cc1OC [Compound 4]
cardiogenic activity (in words) ([2]; at 50 μM): weakly cardiogenic

Compound: O=C(Nc1cccc2cccnc12)c1ccc(N2C(=O)C3C(C2=O)[C@H]2CC[C@@H]3O2)cc1 (stereo partly shown) [Compound 39, 4-(Hexahydro-1H-4,7-epoxyisoindole-1,3(2H)-dion-2-yl)-N-(quinolin-8-yl)benzamide]
fold less potent in Wnt inhibition [4]: > 10 fold | induction of cardiogenesis (class in words) [1]: functionally inactive as inducers of cardiogenesis

Further lines, with some results ahead:

degradation in phosphate buffer [3]: No degradation was observed
Compound: CC(=O)c1ccccc1NC(=O)[C@H]1CC[C@H](N2C(=O)[C@@H]3[C@@H]4CC[C@@H](C4)[C@@H]3C2=O)CC1 [Compound 28, 4-(cis-endo-1,3-Dioxooctahydro-2H-4,7-methanoisoindol-2-yl)-N-(2-acetylphenyl)-trans-cyclohexyl carboxamide]
induction of cardiogenesis (class in words) [1]: potent stimulators of cardiogenesis

IC50 [4, 5]: ~100 nM | degradation in phosphate buffer [3]: No degradation was observed
Compound: O=C1[C@@H]2[C@@H]3CC[C@@H](C3)[C@@H]2C(=O)N1[C@H]1CC[C@H](C(=O)Nc2cccnc2)CC1 [Compound 32, 4-(cis-endo-(1,3-Dioxooctahydro-2H-4,7-methanoisoindol-2-yl))-N-(pyridin-3-yl)-trans-cyclohexyl carboxamide]
induction of cardiogenesis (class in words) [1]: functionally inactive as inducers of cardiogenesis

IC50 [4, 5]: ~100 nM
Compound: O=C1[C@@H]2[C@@H]3CC[C@@H](C3)[C@@H]2C(=O)N1[C@H]1CC[C@H](C(=O)Nc2ccncc2)CC1 [Compound 33, 4-(cis-endo-(1,3-Dioxooctahydro-2H-4,7-methanoisoindol-2-yl))-N-(pyridin-4-yl)-trans-cyclohexyl carboxamide]
induction of cardiogenesis (class in words) [1]: functionally inactive as inducers of cardiogenesis

IC50 [4, 5]: > 200 nM
Compound: O=C(Nc1cccc2cccnc12)c1ccc(N2C(=O)[C@@H]3[C@H]4CC[C@H](CC4)[C@@H]3C2=O)cc1 [Compound 37, 4-cis-endo-(Hexahydro-1H-4,7-ethanoisoindole-1,3(2H)-dion-2-yl)-N-(quinolin-8-yl) benzamide]
fold less potent in Wnt inhibition [4]: > 10 fold | induction of cardiogenesis (class in words) [1]: functionally inactive as inducers of cardiogenesis

% inhibition (1 μM) ([4]; Wnt inhibition at 1 μM, HEK293T cells): 91 ± 1% | IC50 ([4]; HEK293T cells): 119 ± 9 nM
Compound: N-[4-((3aR,4S,7R,7aS)-1,3,3a,4,7,7a-Hexahydro-1,3-dioxo-4,7-methano-2H-isoindol-2-yl)phenyl]-quinoline-8-carboxamide [Compound 52]
induction of cardiogenesis (class in words) [1]: functionally inactive as inducers of cardiogenesis
